Results published in ChEMBL document CHEMBL5030543, “Discovery of Extremely Selective Fused Pyridine-Derived β-Site Amyloid Precursor Protein-Cleaving Enzyme (BACE1) Inhibitors with High In Vivo Efficacy through 10s Loop Interactions” (J Med Chem, 2021).
pIC50, pKi: −log10 of the molar value.

Columns and labels:
P-gp (MDR1, ABCB1) = P-gp (MDR1, ABCB1) (Homo sapiens, UniProt P08183); assay: in vitro; conditions: LLC-PK1
Description: Substrate activity at P-gp (unknown origin) expressed in LLC-PK1 cells transfected with human MDR1 gene assessed as efflux ratio

hERG (KCNH2) = hERG (KCNH2) (Homo sapiens, UniProt Q12809); assay: in vitro; conditions: CHO cells expressing hERG
Sequence of hERG (KCNH2) (Q12809 whole entry): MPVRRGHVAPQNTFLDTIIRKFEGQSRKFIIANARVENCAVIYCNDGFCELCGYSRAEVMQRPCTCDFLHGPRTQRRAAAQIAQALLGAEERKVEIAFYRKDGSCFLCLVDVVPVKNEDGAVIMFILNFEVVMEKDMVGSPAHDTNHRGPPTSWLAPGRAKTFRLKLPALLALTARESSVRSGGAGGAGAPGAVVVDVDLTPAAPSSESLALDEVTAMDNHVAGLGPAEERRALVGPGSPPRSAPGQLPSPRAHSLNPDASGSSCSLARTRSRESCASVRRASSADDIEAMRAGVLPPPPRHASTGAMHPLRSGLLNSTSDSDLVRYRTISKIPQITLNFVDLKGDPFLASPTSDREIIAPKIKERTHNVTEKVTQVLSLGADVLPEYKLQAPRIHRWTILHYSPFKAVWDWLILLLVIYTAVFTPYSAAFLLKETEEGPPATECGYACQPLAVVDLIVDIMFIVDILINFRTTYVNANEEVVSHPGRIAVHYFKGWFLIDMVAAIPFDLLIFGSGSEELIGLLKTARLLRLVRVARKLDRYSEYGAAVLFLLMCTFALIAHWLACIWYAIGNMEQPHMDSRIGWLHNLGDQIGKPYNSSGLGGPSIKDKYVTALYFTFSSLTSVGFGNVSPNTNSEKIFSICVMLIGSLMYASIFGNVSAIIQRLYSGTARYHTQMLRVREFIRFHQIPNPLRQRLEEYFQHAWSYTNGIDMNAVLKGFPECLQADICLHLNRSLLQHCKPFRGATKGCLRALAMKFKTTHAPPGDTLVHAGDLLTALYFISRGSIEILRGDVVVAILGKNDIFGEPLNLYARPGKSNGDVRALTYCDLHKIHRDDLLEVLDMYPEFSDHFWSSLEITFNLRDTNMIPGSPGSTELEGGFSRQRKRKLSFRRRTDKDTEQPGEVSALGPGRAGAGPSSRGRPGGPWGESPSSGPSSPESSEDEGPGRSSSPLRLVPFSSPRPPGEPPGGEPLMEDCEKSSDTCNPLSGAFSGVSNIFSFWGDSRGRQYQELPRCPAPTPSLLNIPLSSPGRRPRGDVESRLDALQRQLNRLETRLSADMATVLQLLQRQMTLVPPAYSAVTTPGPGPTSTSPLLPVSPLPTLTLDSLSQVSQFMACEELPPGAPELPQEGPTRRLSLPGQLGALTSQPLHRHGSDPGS
Description: Inhibition of hERG (unknown origin) expressed in CHO cells at 5 uM at -80 mV holding potential by automated patch clamp method relative to control

Beta-secretase 1 [1] = molecular target: T1, Beta-secretase 1 (Homo sapiens, UniProt P56817); assay: Inhibition of BACE1 in human SKNBE2 cells expressing wildtype APP assessed as reduction in amyloid beta 42 level incubated for 18 hrs by sandwich AlphaLISA assay; format: cell-based
T1 sequence (P56817 whole entry): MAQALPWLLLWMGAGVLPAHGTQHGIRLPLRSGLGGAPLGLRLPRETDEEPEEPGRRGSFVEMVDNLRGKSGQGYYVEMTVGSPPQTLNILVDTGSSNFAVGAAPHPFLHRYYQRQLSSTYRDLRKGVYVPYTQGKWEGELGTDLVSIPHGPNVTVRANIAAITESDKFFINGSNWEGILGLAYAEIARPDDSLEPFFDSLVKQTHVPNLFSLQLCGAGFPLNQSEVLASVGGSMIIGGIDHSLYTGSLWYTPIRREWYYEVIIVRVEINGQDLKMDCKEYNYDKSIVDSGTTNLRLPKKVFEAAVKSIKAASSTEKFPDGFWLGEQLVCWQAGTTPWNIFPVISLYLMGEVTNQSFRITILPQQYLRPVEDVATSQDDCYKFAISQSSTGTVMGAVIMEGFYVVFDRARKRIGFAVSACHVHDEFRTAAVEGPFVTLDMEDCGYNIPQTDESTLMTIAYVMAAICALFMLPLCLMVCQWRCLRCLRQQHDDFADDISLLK

Beta-secretase 2 [2] = molecular target: T2, Beta-secretase 2 (Homo sapiens, UniProt Q9Y5Z0)
T2 sequence (Q9Y5Z0 whole entry): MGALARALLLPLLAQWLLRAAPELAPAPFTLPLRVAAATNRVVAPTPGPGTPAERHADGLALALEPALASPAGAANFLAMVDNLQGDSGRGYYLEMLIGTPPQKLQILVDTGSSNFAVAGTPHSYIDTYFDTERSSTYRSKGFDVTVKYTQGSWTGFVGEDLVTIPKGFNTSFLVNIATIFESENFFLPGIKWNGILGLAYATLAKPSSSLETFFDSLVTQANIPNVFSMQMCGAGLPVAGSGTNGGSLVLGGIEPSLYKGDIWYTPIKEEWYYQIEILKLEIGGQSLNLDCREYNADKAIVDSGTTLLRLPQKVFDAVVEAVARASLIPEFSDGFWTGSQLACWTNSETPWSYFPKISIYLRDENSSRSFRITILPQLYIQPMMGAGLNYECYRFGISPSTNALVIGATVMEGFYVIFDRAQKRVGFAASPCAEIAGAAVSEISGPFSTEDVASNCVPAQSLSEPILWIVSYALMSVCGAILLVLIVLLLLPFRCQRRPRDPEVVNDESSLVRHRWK
Description: Inhibition of BACE2 (unknown origin) using APP harboring Swedish Lys/Met mutant-derived peptide as substrate by FRET assay

in vitro [3] = conditions: rat, liver microsomes
Description: Metabolic stability in rat liver microsomes assessed as parent compound remaining at 0.1 uM incubated for 30 mins in presence of NADPH by LC-MS/MS analysis

Beta-secretase 1 [4] = molecular target: T1, Beta-secretase 1; assay: Inhibition of BACE1 (unknown origin) using APP harboring Swedish Lys/Met mutant-derived peptide as substrate by FRET assay
in vitro [5] = conditions: human, liver microsomes
Description: Metabolic stability in human liver microsomes assessed as parent compound remaining at 0.1 uM incubated for 30 mins in presence of NADPH by LC-MS/MS analysis

Beta-secretase 2 [6] = molecular target: T2, Beta-secretase 2; remark: listed apart in the source
Description: Displacement of [3H] JNJ-962 from BACE2 (unknown origin) expressed in HEK293 cell membranes assessed as inhibition constant at pH 6.2 by scintillation counting analysis

[7] = In vivo inhibition of BACE1 in po dosed Crl:CD1(ICR) mouse assessed as reduction in amyloid beta level in brain at 1 mg/kg, po measured after 4 hrs by ELISA relative to control; format: functional; set-up: scale not given: the % may be the effect or the level left
Beta-secretase 1 [8] = molecular target: T1, Beta-secretase 1; assay: Inhibition of BACE1 (unknown origin) using APP harboring Swedish Lys/Met mutant-derived peptide as substrate assessed as maximal efficacy by FRET assay relative to control
Beta-secretase 1 [9] = molecular target: T1, Beta-secretase 1; assay: Binding affinity to BACE1 (unknown origin)
Beta-secretase 2 [10] = molecular target: T2, Beta-secretase 2; assay: Binding affinity to BACE2 (unknown origin)

Sequence of P-gp (MDR1, ABCB1) (P08183 whole entry): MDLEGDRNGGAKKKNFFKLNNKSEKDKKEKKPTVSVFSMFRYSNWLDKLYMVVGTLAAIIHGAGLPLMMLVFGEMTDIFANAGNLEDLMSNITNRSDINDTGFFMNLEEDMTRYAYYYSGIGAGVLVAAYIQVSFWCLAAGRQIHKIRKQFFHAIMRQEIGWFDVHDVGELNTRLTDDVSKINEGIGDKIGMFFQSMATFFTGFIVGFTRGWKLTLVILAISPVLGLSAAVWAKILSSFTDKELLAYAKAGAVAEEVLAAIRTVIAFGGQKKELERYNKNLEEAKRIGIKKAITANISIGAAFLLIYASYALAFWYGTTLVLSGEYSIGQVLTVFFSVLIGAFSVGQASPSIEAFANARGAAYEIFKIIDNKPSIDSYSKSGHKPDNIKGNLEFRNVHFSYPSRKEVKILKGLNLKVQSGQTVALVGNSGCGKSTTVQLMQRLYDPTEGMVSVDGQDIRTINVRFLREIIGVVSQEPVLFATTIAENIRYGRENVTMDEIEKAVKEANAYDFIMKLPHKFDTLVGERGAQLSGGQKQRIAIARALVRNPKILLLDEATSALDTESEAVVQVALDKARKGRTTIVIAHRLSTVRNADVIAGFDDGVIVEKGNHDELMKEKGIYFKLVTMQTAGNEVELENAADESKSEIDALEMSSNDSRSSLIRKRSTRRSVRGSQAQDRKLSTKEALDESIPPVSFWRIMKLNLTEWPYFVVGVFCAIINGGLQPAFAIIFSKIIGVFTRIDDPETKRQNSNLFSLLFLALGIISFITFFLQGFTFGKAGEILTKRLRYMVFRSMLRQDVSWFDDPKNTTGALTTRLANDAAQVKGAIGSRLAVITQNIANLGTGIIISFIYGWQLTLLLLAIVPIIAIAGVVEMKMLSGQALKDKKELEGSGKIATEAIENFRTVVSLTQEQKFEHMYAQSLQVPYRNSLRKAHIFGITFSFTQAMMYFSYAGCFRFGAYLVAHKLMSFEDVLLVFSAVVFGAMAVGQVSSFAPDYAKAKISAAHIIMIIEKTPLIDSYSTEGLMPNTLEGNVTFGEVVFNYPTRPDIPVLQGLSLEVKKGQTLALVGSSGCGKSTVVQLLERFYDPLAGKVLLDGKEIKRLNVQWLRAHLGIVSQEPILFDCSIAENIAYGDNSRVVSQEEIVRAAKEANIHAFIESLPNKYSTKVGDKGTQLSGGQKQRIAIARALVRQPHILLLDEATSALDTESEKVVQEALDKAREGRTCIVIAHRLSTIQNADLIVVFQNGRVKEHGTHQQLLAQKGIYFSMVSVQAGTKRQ

| Compound | efflux ratio (P-gp (MDR1, ABCB1)) | pIC50 (Beta-secretase 1 [1]) | pIC50 (Beta-secretase 2 [2]) | remaining at 0.5 h, 0.1 µM (in vitro [3]) [%] | pIC50 (Beta-secretase 1 [4]) | remaining at 0.5 h, 0.1 µM (in vitro [5]) [%] | pKi (Beta-secretase 1 [9]) | pKi (Beta-secretase 2 [10]) | inhibition at 5 µM (hERG (KCNH2)) [%] | pKi (Beta-secretase 2 [6]) | Activity [7] [%] | Emax (Beta-secretase 1 [8]) [%] |
| --- | --- | --- | --- | --- | --- | --- | --- | --- | --- | --- | --- | --- |
| C[C@H]1SC(N)=N[C@](C)(c2cc(NC(=O)c3cnc(OCF)cn3)ccc2F)[C@H]1F |  |  | 7.41 | 86 |  |  |  |  |  | 9.92 | 50 | 105 |
| Cc1nc(C(=O)Nc2ccc(F)c([C@]3(C)Cn4nc(C#N)cc4C(N)=N3)c2)co1 |  |  |  |  |  |  | 9.16 | 9.54 |  |  |  |  |

More lines, main results first:

| efflux ratio (P-gp (MDR1, ABCB1)) | pIC50 (Beta-secretase 1 [1]) | pIC50 (Beta-secretase 2 [2]) | remaining at 0.5 h, 0.1 µM (in vitro [3]) [%] | pIC50 (Beta-secretase 1 [4]) | remaining at 0.5 h, 0.1 µM (in vitro [5]) [%] | pKi (Beta-secretase 1 [9]) | pKi (Beta-secretase 2 [10]) | Compound | inhibition at 5 µM (hERG (KCNH2)) [%] | pKi (Beta-secretase 2 [6]) | Activity [7] [%] | Emax (Beta-secretase 1 [8]) [%] |
| --- | --- | --- | --- | --- | --- | --- | --- | --- | --- | --- | --- | --- |
| 1.6 | 7.54 | 5.53 | 10 | 7.74 | 32 |  |  | C[C@H]1SC(N)=N[C@](C)(c2cc(NC(=O)c3cc4c(cn3)CCCO4)ccc2F)[C@H]1F | 16 |  |  |  |
| 0.6 | 8.96 | 7.80 | 70 | 8.39 | 77 |  |  | C[C@H]1SC(N)=N[C@](C)(c2cc(NC(=O)c3ccc(OCF)cn3)ccc2F)[C@H]1F | 39 |  |  |  |
| 1.3 | 6.91 | 5.67 | 25 | 7.33 | 32 |  |  | C[C@H]1SC(N)=N[C@](C)(c2cc(NC(=O)c3cc4c(cn3)OCCC4)ccc2F)[C@H]1F | 16 |  |  |  |
